Data as given in US7189753B1, “Preemptive prophylaxis of migraine” (priority 1997, dated 2007).

System: onset of the headache phase of migraine
Assay: Open label pilot study of oral naratriptan 2.5 mg taken as a single dose during prodrome
Assay type: in vivo, human
Method: An open label pilot study was conducted to determine whether oral naratriptan 2.5 mg taken as a single dose during the prodrome could prevent the onset of the headache phase of migraine. […] Twenty patients recruited at 4 study sites were administered oral naratriptan 2.5 mg after onset of prodrome symptoms for a total of 63 prodromes. […] The pain severity of headaches that were not prevented were reduced as compared to baseline pain severity of migraine attacks not treated with naratriptan. An additional 13 patients recruited at a fifth site were also treated. […] Upon review, all 13 patients reported onset of headache within 3 hours after administration of naratriptan. Eighty-seven percent of prodromes in this patient group were treated ≦2 hours before onset of headache.

CNS(=O)(=O)CCc1ccc2[nH]cc(C3CCN(C)CC3)c2c1.Cl [naratriptan, N-methyl-3-(1-methyl-4-piperidinyl)-1H-indole-5-ethanesulfonamide monohydrochloride]
headaches not prevented that occurred ≦2 hours after treatment (4 sites, 15 of the 25 headaches): 60% | pain severity of headaches that were not prevented, compared to baseline pain severity of attacks not treated with naratriptan (4 study sites, oral 2.5 mg): reduced | treated prodromes that did not progress to headache (20 patients at 4 study sites, 63 prodromes, oral 2.5 mg after onset of prodrome symptoms): Sixty | patients reporting headache following treatment (additional 13 patients at a fifth site): All 13 patients reported headache following each treatment | prodromes treated ≦2 hours before onset of headache (fifth site, 13 patients): Eighty-seven | onset of headache after administration (fifth site, all 13 patients): ≤ 3 h | preventing the onset of the headache phase of migraine (oral 2.5 mg single dose during prodrome, open label): effective in preventing the onset of the headache phase of migraine
